The source of these data is patent US8530501B2, “Salts and crystalline forms of a factor Xa inhibitor” (Millennium Pharmaceuticals, Inc., priority 2009, dated 2013).

What all share (assay type): physicochemical
A short description of data set [1]: Thermodynamic aqueous solubility by HPLC (filtration method). The following applies: for pH: pH of the solubility suspension; for pH (with aqueous solubility): pH of suspension. The method, then:
The aqueous thermodynamic solubility of selected salt forms was measured using the filtration method as described in Example 10.
The suspension was equilibrated at 25° C. for 24 hours then the pH was measured. The suspension was then filtered through a glass fiber C filter into a 96 well plate. The filtrate was then diluted by a factor of 101. Quantitation was by HPLC with reference to a standard solution of approximately 0.1 mg/mL in DMSO. Different volumes of the standard, diluted and undiluted sample solutions were injected. The solubility was calculated using the peak areas determined by integration of the peak found at the same retention time as the principal peak in the standard injection.

A short description of data set [2]: Gravimetric Vapour Sorption (GVS). The following applies: for physical stability after moisture exposure (XRPD pre- and post-GVS): exposed up to 90% RH at 25° C.; for Hygroscopicity: moisture absorbed by weight: between 0 and 90% relative humidity. As for the experimental part:
Sorption isotherms were obtained using a SMS HT-DVS moisture sorption analyser by Surface Measurement Systems Limited, Middlesex, UK, controlled by SMS Analysis Suite software. The sample temperature was maintained at 25° C. by the instrument controls. The humidity was controlled by mixing streams of dry and wet nitrogen, with a total flow rate of 400 mL/min. The relative humidity was measured by a calibrated optical dew point transmitter (dynamic range of 0.5-100% RH), located near the sample. The weight change, (mass relaxation) of the sample as a function of % RH was constantly monitored by the microbalance (accuracy±0.005 mg).
Typically 5-20 mg of sample was placed in a tared mesh stainless steel liner within a stainless steel pan under ambient conditions. The sample was loaded and unloaded at 40% RH and 25° C. (typical room conditions).
A moisture sorption isotherm was performed as outlined in Table 13 (2 scans giving 1 complete cycle). The standard isotherm was performed at 25° C. at 10% RH intervals over a 0.5-90% RH range.
The sample was recovered after completion of the isotherm and re-analysed by XRPD.

Data set [3] can be described thus: Stability on storage at 40° C./75% RH (XRPD, HPLC purity). The following applies: for stability with respect to solid form and chemical purity: 40° C./75% RH (elevated humidity and temperature); for crystallinity upon storage (XRPD): 40° C./75% RH, no change in solid form; for Purity post 40° C./75% RH: HPLC purity after seventeen days at 40° C./75% RH; for Purity as isolated: HPLC purity pre 40° C./75% RH; for drop in chemical purity: upon storage at 40° C./75% RH. The source says: […] No significant thermal events were seen before degradation began for both the phosphate salt and the 1-hydroxy-2-naphthoate salts.

Data set [4] is described as follows: Thermodynamic aqueous solubility by HPLC (ultracentrifugation method). As for the experimental part: The physical chemical properties of Forms A and B were determined according to the procedures below and the data are summarized in Table 12.
The mixture was allowed to equilibrate for at least 48 hours at 37° C. under mild agitation. At each 24-48 hour interval, an aliquot was removed and the solution was separated from the solid via ultracentrifugation at >60,000 rpm for 20 min and then analyzed by HPLC for the concentration of the compound in the supernatant. Upon equilibration (concentration plateau is reached), the concentration was reported as solubility. This method is the preferred method in determining solubility as it attains the equilibrium and is measurement of the thermodynamic solubility.

Data set [5] is described as follows: Log P and Log D determination (potentiometric titration, octanol:ISA water). The following applies: octanol/ionic-strength adjusted (ISA) water. The source says: Data were collected by potentiometric titration on a Sirius GlpKa instrument using three ratios of octanol:ionic-strength adjusted (ISA) water to generate Log P, Log Pion, and Log D values. The data were refined using Refinement Pro software v1.0. Prediction of Log P values was made using ACD v9 and Syracuse KOWWIN™ v1.67 software by Syracuse Research Corp., Syracuse, N.Y., USA.

A short description of data set [6]: pKa determination (Sirius GlpKa). The settings on record: 25° C. As for the experimental part: Data were collected on a Sirius GlpKa instrument by Sirius Analytical Ltd., UK with a D-PAS attachment. Measurements were made at 25° C. in aqueous solution by UV and in methanol water mixtures by potentiometry. The titration media was ionic-strength adjusted (ISA) with 0.15 M KCl (aq). The values found in the methanol water mixtures were corrected to 0% co-solvent via a Yasuda-Shedlovsky extrapolation. The data were refined using Refinement Pro software v1.0. Prediction of pKa values was made using ACD pKa prediction software v9.

Setting [7] is: Table 8, filtration method, water, 25° C., 24 hours.
The mark [8] stands for this setting: listed as 1-Hydroxy-2-naphthoate 2-5.

Molecules are shown by their SMILES.

The Aqueous solubility is the dissolved amount per volume that the medium holds. For orientation: solubility means the concentration that dissolves in the medium under given conditions. A lower solubility goes with a poorly soluble substance. In general, logP refers to a log measure of how a compound divides between an organic and an aqueous phase. Read a low logP as lower lipophilicity. The logD is lipophilicity at a set pH, counting ionised and neutral species. A lower logD goes with a more hydrophilic compound. For orientation: pKa means the negative logarithm of the acid dissociation constant. Read a low pKa as a stronger acid or weaker base.

For the compound `O=C(NCc1cn(-c2ccc(-n3ccccc3=O)cc2)cn1)c1ccc(Cl)s1` [1-Hydroxy-2-naphthoate Form 1], the “Aqueous solubility” value was found to be 50 µg/mL in data set [1] (setting [7]); 44 µg/mL in data set [1] (salts formed under reflux conditions, water, listed as 1-hydroxy-2-napthoic acid MeCN); 68 µg/mL in data set [1] (salts from 100-mg maturation experiments, water, listed as 2-5). The compound further showed a pH in data set [1] (Table 8) of 6.0. The “pH (with aqueous solubility)” value was “pH = 5.99” in data set [1] (salts formed under reflux conditions, listed as 1-hydroxy-2-napthoic acid MeCN) and “pH = 6.50” in data set [1] (salts from 100-mg maturation experiments, listed as 2-5). Further, the “hygroscopicity (GVS)” value in data set [2] is “Neither salts showed hygroscopicity”. In addition, the “physical stability after moisture exposure (XRPD pre- and post-GVS)” value (shortened to “physical stability … (XRPD pre- and post-GVS)”) in data set [2] (listed as 1-hydroxy-2-naphthoate salt of Compound I) is listed as “substantially stable”. Also, in data set [2] (listed as 1-hydroxy-2-naphthoate salt Form 1), the “hysteresis in GVS” value is recorded as “showed any hysteresis”. For the same compound, in data set [3], the “stability with respect to solid form and chemical purity” value is “stable”. For the same compound, the “crystallinity upon storage (XRPD)” value in data set [3] is listed as “loss of crystallinity”. The “Purity post 40° C./75% RH” value in data set [3] (setting [8]) turned out to be 97.7%. This compound also registered a Purity as isolated in data set [3] (setting [8]) of 98.2%. The “drop in chemical purity” value in data set [3] (listed as 1-hydroxy-2-naphthoate salt) came to 0.5%.
As for `O=C(NCc1cn(-c2ccc(-n3ccccc3=O)cc2)cn1)c1ccc(Cl)s1` [Mesylate Form A], the “pH of saturated solution” value in data set [4] is reported as 3.3. For the same compound, the entries for the “Aqueous Solubility (Ultracentrifugation Method)” value in data set [4] (in simulated gastric fluid), in data set [4] (in simulated intestinal fluid) and in data set [4] (in water) were 1.3 mg/mL in simulated gastric, 0.02 mg/mL in simulated and 2.0 mg/mL in water, respectively. Also, the “Aqueous solubility” value in data set [1] (setting [7]) turned out to be 5100 µg/mL. The same compound gave a pH in data set [1] (Table 8) of 1.8. For the same compound, the solubility at 24 h in data set [1] (water, 25 °C, pH 1.8, water, thermodynamic from solid, at pH 1.8) came to 5100 µg/mL. The GVS uptake in data set [2] (at 90% RH) worked out at 2.8 wt %. Further, the “Hygroscopicity: moisture absorbed by weight” value in data set [2] was “Absorbs approximately 2.5%”. The “physical stability … (XRPD pre- and post-GVS)” value in data set [2] is recorded as “good physical stability”. Further, the “hysteresis in GVS” value in data set [2] (listed as mesylate salt) is “no hysteresis evident”. Moreover, in data set [3] (6 months of storage at 40° C./75% RH), the physical stability result is on record as “physically stable”. This compound gave a logP in data set [5] of 2.25. The compound also displayed a log distribution coefficient (logD) in data set [5] (pH 7.4) of 2.85. The pKa in data set [6] came to 4.46.
Turning to `O=C(NCc1cn(-c2ccc(-n3ccccc3=O)cc2)cn1)c1ccc(Cl)s1` [Mesylate Form B], the “pH of saturated solution” value in data set [4] is on record as 2.7. The “Aqueous Solubility (Ultracentrifugation Method)” value in data set [4] (in simulated gastric fluid) is on record as 12 mg/mL in simulated gastric; in data set [4] (in simulated intestinal fluid), 0.06 mg/mL in simulated; in data set [4] (in water), 8.5 mg/mL in water. The “Hygroscopicity: moisture absorbed by weight” value in data set [2] is “Absorbs approximately 2.5%”. In addition, the “physical stability … (XRPD pre- and post-GVS)” value in data set [2] is listed as “good physical stability”.
For the compound `O=C(NCc1cn(-c2ccc(-n3ccccc3=O)cc2)cn1)c1ccc(Cl)s1` [Phosphate Form 2], the “Aqueous solubility” value in data set [1] (setting [7]) came to 4100 µg/mL; in data set [1] (salts formed under reflux conditions, water, listed as Phosphoric acid MeCN), 4100 µg/mL. For the same compound, the pH in data set [1] (Table 8) was found to be 2.0. Also, in data set [1] (salts formed under reflux conditions, listed as Phosphoric acid MeCN), the “pH (with aqueous solubility)” value is “pH = 2.00”. Besides, the “hygroscopicity (GVS)” value in data set [2] was “Neither salts showed hygroscopicity”. Besides, in data set [3], the “stability with respect to solid form and chemical purity” value is given as “stable”.
On to `O=C(NCc1cn(-c2ccc(-n3ccccc3=O)cc2)cn1)c1ccc(Cl)s1` [Phosphate Form 3], for which the “Aqueous solubility” value in data set [1] (setting [7]) was 6900 µg/mL. This compound registered a pH in data set [1] (Table 8) of 2.2. In addition, in data set [1] (salts from 100-mg maturation experiments, listed as 2-4), the “pH (with aqueous solubility)” value is “pH = 2.18”. In addition, the Aqueous solubility in data set [1] (salts from 100-mg maturation experiments, water, listed as 2-4) stood at 6900 µg/mL. For the same compound, in data set [3], the “stability with respect to solid form and chemical purity” value was “stable”; the “crystallinity upon storage (XRPD)” value was “loss of crystallinity”; the “drop in chemical purity” value is 0.7%. Further, in data set [3] (listed as Phosphate 2-4), the “Purity post 40° C./75% RH” value came out at 97.3% and the Purity as isolated is 98.0%.
